From patent US11963995B2, “Methods comprising desmopressin” (Ferring B.V., priority 2008, dated 2024)

Test system: adult patients with nocturia
Experiment: Long term nocturnal voids, change from baseline up to week 52 (Parts II/III)
Type: in vivo, human
Conditions: for mean decrease in nocturnal voids per night at one year: Part III
Description: To ensure that the study remained fully blinded during the full extent of both Parts I and II, re-randomization of subjects assigned to placebo after 4 weeks of treatment was predetermined at the time of initial randomization. […] The total treatment duration for each subject depended on when that subject was randomized in Part I and was estimated to be a minimum of 4 weeks and a maximum of 6 months. Upon completion of Part II of the study, subjects were given the option to participate in an open-label study with expected total treatment duration (double-blind extension plus open-label study) of at least 12 months (i.e., Part III). In Part III, subjects were assigned to the same treatment as in Part II, initially in a blinded manner. Subjects were unblinded and the study became open label only when all subjects in Parts I and II remaining in the study had entered Part III. During Part III, 10 μg was identified as a sub-therapeutic dose based on efficacy data from Part I. As a consequence, patients in the 10 μg treatment group were re-randomized (beginning Q4 2008) to one of the other treatment groups (i.e., 25 μg, 50 μg, or 100 μg). The total treatment duration was at least 12 months. A total of 508 patients entered the open-labeled extension (i.e., Part III). […] A summary of the changes from baseline is presented for all eligible subjects. […] However, based on the data below, the additional decreases in the number of voids can be characterized as clinically significant. As used here, “clinically significant” means a minimum worthwhile effect.

Compound: NC(=O)CC[C@@H]1NC(=O)[C@H](Cc2ccccc2)NC(=O)[C@H](Cc2ccc(O)cc2)NC(=O)CCSSC[C@@H](C(=O)N2CCC[C@H]2C(=O)N[C@H](CCCN=C(N)N)C(=O)NCC(N)=O)NC(=O)[C@H](CC(N)=O)NC1=O [desmopressin]
- mean decrease in nocturnal voids per night at one year (25 μg, all eligible subjects): 1.4 voids per night
- Change from baseline of nocturnal voids, Mean (25 μg, all eligible female subjects, Day 28): −1.26
- Change from baseline of nocturnal voids, Mean (25 μg, all eligible female subjects, Week 8): −1.51
- Change from baseline of nocturnal voids, Mean (25 μg, all eligible female subjects, Week 12): −1.66
- Change from baseline of nocturnal voids, Mean (25 μg, all eligible female subjects, Week 20): −1.68
- Change from baseline of nocturnal voids, Mean (25 μg, all eligible female subjects, Week 28): −1.86
- Change from baseline of nocturnal voids, Mean (25 μg, all eligible female subjects, Week 52): −1.75
- Change from baseline of nocturnal voids, Mean (25 μg, all eligible male subjects, Day 28): −0.76
- Change from baseline of nocturnal voids, Mean (25 μg, all eligible male subjects, Week 8): −0.84
- Change from baseline of nocturnal voids, Mean (25 μg, all eligible male subjects, Week 12): −0.90
- Change from baseline of nocturnal voids, Mean (25 μg, all eligible male subjects, Week 20): −1.25
- Change from baseline of nocturnal voids, Mean (25 μg, all eligible male subjects, Week 28): −1.15
- Change from baseline of nocturnal voids, Mean (25 μg, all eligible male subjects, Week 52): −1.13
- Change from baseline of nocturnal voids, Mean (25 μg, all eligible subjects, Day 28): −0.98
- Change from baseline of nocturnal voids, Mean (25 μg, all eligible subjects, Week 8): −1.16
- Change from baseline of nocturnal voids, Mean (25 μg, all eligible subjects, Week 12): −1.29
- Change from baseline of nocturnal voids, Mean (25 μg, all eligible subjects, Week 20): −1.48
- Change from baseline of nocturnal voids, Mean (25 μg, all eligible subjects, Week 28): −1.44
- Change from baseline of nocturnal voids, Mean (25 μg, all eligible subjects, Week 52): −1.41
- Change from baseline of nocturnal voids, Mean (25 μg, all subjects with or without an assessment at week 52, Day 28): −0.96
- Change from baseline of nocturnal voids, Mean (25 μg, all subjects with or without an assessment at week 52, Week 12): −1.42
- Change from baseline of nocturnal voids, Mean (25 μg, all subjects with or without an assessment at week 52, Week 20): −1.61
- Change from baseline of nocturnal voids, Mean (25 μg, all subjects with or without an assessment at week 52, Week 28): −1.39
- Change from baseline of nocturnal voids, Mean (25 μg, all subjects with or without an assessment at week 52, Week 52): −1.41
- Change from baseline of nocturnal voids, Mean (25 μg, all subjects with or without an assessment at week 52, time printed as "Week" (between Day 28 and Week 12)): −1.31
- mean decrease in nocturnal voids per night at one year (50 μg, all eligible subjects): 1.77 voids per night
- Change from baseline of nocturnal voids, Mean (50 μg, all eligible female subjects, Day 28): −1.30
- Change from baseline of nocturnal voids, Mean (50 μg, all eligible female subjects, Week 8): −1.60
- Change from baseline of nocturnal voids, Mean (50 μg, all eligible female subjects, Week 12): −1.62
- Change from baseline of nocturnal voids, Mean (50 μg, all eligible female subjects, Week 20): −1.93
- Change from baseline of nocturnal voids, Mean (50 μg, all eligible female subjects, Week 28): −1.89
- Change from baseline of nocturnal voids, Mean (50 μg, all eligible female subjects, Week 52): −1.95
- Change from baseline of nocturnal voids, Mean (50 μg, all eligible male subjects, Day 28): −1.16
- Change from baseline of nocturnal voids, Mean (50 μg, all eligible male subjects, Week 8): −1.31
- Change from baseline of nocturnal voids, Mean (50 μg, all eligible male subjects, Week 12): −1.30
- Change from baseline of nocturnal voids, Mean (50 μg, all eligible male subjects, Week 20): −1.73
- Change from baseline of nocturnal voids, Mean (50 μg, all eligible male subjects, Week 28): −1.28
- Change from baseline of nocturnal voids, Mean (50 μg, all eligible male subjects, Week 52): −1.69
- Change from baseline of nocturnal voids, Mean (50 μg, all eligible subjects, Day 28): −1.22
- Change from baseline of nocturnal voids, Mean (50 μg, all eligible subjects, Week 8): −1.44
- Change from baseline of nocturnal voids, Mean (50 μg, all eligible subjects, Week 12): −1.44
- Change from baseline of nocturnal voids, Mean (50 μg, all eligible subjects, Week 20): −1.80
- Change from baseline of nocturnal voids, Mean (50 μg, all eligible subjects, Week 28): −1.55
- Change from baseline of nocturnal voids, Mean (50 μg, all eligible subjects, Week 52): −1.80
- Change from baseline of nocturnal voids, Mean (50 μg, all subjects with or without an assessment at week 52, Week 12): −1.51
- Change from baseline of nocturnal voids, Mean (50 μg, all subjects with or without an assessment at week 52, Week 20): −1.71
- Change from baseline of nocturnal voids, Mean (50 μg, all subjects with or without an assessment at week 52, Week 28): −1.55
- Change from baseline of nocturnal voids, Mean (50 μg, all subjects with or without an assessment at week 52, Week 52): −1.80
- Change from baseline of nocturnal voids, Mean (50 μg, all subjects with or without an assessment at week 52, time printed as "Day" (after Day 0)): −1.10
- Change from baseline of nocturnal voids, Mean (50 μg, all subjects with or without an assessment at week 52, time printed as "Week" (before Week 12)): −1.43
- mean decrease in nocturnal voids per night at one year (100 μg, all eligible subjects): 2.11 voids per night
- Change from baseline of nocturnal voids, Mean (100 μg, all eligible female subjects, Day 28): −1.50
- Change from baseline of nocturnal voids, Mean (100 μg, all eligible female subjects, Week 8): −1.69
- Change from baseline of nocturnal voids, Mean (100 μg, all eligible female subjects, Week 12): −1.79
- Change from baseline of nocturnal voids, Mean (100 μg, all eligible female subjects, Week 20): −1.98
- Change from baseline of nocturnal voids, Mean (100 μg, all eligible female subjects, Week 28): −1.75
- Change from baseline of nocturnal voids, Mean (100 μg, all eligible female subjects, Week 52): −2.11
- Change from baseline of nocturnal voids, Mean (100 μg, all eligible male subjects, Day 28): −1.31
- Change from baseline of nocturnal voids, Mean (100 μg, all eligible male subjects, Week 8): −1.52
- Change from baseline of nocturnal voids, Mean (100 μg, all eligible male subjects, Week 12): −1.89
- Change from baseline of nocturnal voids, Mean (100 μg, all eligible male subjects, Week 20): −1.92
- Change from baseline of nocturnal voids, Mean (100 μg, all eligible male subjects, Week 28): −1.92
- Change from baseline of nocturnal voids, Mean (100 μg, all eligible male subjects, Week 52): −2.12
- Change from baseline of nocturnal voids, Mean (100 μg, all eligible subjects, Day 28): −1.406
- Change from baseline of nocturnal voids, Mean (100 μg, all eligible subjects, Week 8): −1.61
- Change from baseline of nocturnal voids, Mean (100 μg, all eligible subjects, Week 12): −1.83
- Change from baseline of nocturnal voids, Mean (100 μg, all eligible subjects, Week 20): −1.95
- Change from baseline of nocturnal voids, Mean (100 μg, all eligible subjects, Week 28): −1.83
- Change from baseline of nocturnal voids, Mean (100 μg, all eligible subjects, Week 52): −2.11
- Change from baseline of nocturnal voids, Mean (100 μg, all subjects with or without an assessment at week 52, Day 28): −1.31
- Change from baseline of nocturnal voids, Mean (100 μg, all subjects with or without an assessment at week 52, Week 8): −1.47
- Change from baseline of nocturnal voids, Mean (100 μg, all subjects with or without an assessment at week 52, Week 12): −1.73
- Change from baseline of nocturnal voids, Mean (100 μg, all subjects with or without an assessment at week 52, Week 20): −1.86
- Change from baseline of nocturnal voids, Mean (100 μg, all subjects with or without an assessment at week 52, Week 52): −2.11
- Change from baseline of nocturnal voids, Mean (100 μg, all subjects with or without an assessment at week 52, time printed as "Week" (between Week 20 and Week 52)): −1.80
